From patent publication US5759836A, “Osteoarthritis-associated inducable isoform of nitric oxide synthetase” (priority 1995, dated 1998)
Where “and” joins values, the source holds several entries; their conditions need not be identical. Equal values may be shown once.

Assays:
iNOS [1] = assay: Nitrite accumulation in LPS-stimulated RAW 264.7 murine macrophages (Griess method); assay type: cell-based; conditions: for further inhibition of nitrite accumulation above that observed at 3 mM: suprapharmacological
Experimental: Effects of NSAIDs on Nitrite Accumulation. […] The expression and activity of iNOS were monitored by estimation of the stable end-product: nitrites.
concentrations of NSAIDs for 2 h followed by addition of 100 ng/ml of LPS
After 16-18 h of incubation, the medium was used to estimate the
accumulation of nitrite by the Greiss method (Green et al., Anal Biochem.
The specific activity of iNOS was determined in cellfre
extracts at a given time period as described. The nitrite and specific
activity data are representative of mean ± SD value, as determined by
student t test, for 10 and 4 independent experiments, respectively. The p
values described are compared with LPSstimulated cells. […]

iNOS [2] = assay: In vitro iNOS catalytic activity in cell-free extracts preincubated with drug (L-[3H]-arginine to L-[3H]-citrulline); assay type: biochemical, murine; conditions: 20 min preincubation
iNOS [3] = assay: iNOS expression in stimulated rat chondrosarcomas; assay type: cell-based
Experimental: NSAIDs were tested in: (FIG. 5A) rat chondrosarcomas stimulated with LPS, and (FIG. 5B) unstimulated OA cartilage (n=3).

## CC(=O)Oc1ccccc1C(=O)O [Aspirin, aspirin]
iNOS [1]; 1 mM, LPS 100 ng/ml, 16-18 h
  Nitrite released, Nitrite: 26.6 ± 4.3 µM
iNOS [1]; 2 mM, LPS 100 ng/ml, 16-18 h
  Nitrite released, Nitrite: 22.9 ± 5.3 µM
iNOS [1]; 3 mM, LPS 100 ng/ml, 16-18 h
  Nitrite released, Nitrite: 20.3 ± 3.9 µM
iNOS [1]; 5 mM
  further inhibition of nitrite accumulation above that observed at 3 mM: 50%
iNOS [1]; 10 mM
  further inhibition of nitrite accumulation above that observed at 3 mM: 80%
iNOS [1]; Mus musculus, RAW264.7, read-out: Nitrite released, % inhibition, 1 mM, LPS 100 ng/ml, 16-18 h
  inhibition at 1000 µM: 10%
iNOS [1]; Mus musculus, RAW264.7, read-out: Nitrite released, % inhibition, 2 mM, LPS-stimulated, 16-18 h
  inhibition at 2000 µM: 22%
iNOS [1]; Mus musculus, RAW264.7, read-out: Nitrite released, % inhibition, 3 mM, LPS 100 ng/ml, 16-18 h
  inhibition at 3000 µM: 32%
iNOS [2]; 0.1 mM
  inhibition of iNOS catalytic activity in cell-free extracts: 10-12%
iNOS [2]; 1 mM
  inhibition of iNOS catalytic activity in cell-free extracts (specific activity in in vitro assay): ~ 45% and 45-68%
iNOS [3]; 72 h, added 1 h prior to cytokines
  inhibition of iNOS expression in rat chondrosarcomas: ~ 57%
iNOS [3]; LPS/cytokine-stimulated, L-NMMA 500 μM, indomethacin 20 μM
  effect on iNOS in rat chondrosarcomas: significant inhibition of iNOS
